Test results published in patent US7279336B2, “Methods and compositions for enhanced plant cell transformation” (priority 2002, dated 2007).

Key:
[1] = tested on: immature zygotic embryos of the maize hybrid line Hi II; test: Agrobacterium tumefaciens (EHA101, standard binary vector pTF102) transformation of maize Hi II immature zygotic embryos
Description: A. tumefaciens strain EHA101 (Hood et al., 1986) containing the standard binary vector pTF102 (12.1 kb) was used in all experiments. […] This vector system, pTF 102 in EHA 101, was maintained on yeast extract peptone (YEP) medium (An et al., 1988) containing 100 mg/L spectinomycin (for pTF102) and 50 mg/L kanamycin (for EHA101). Bacteria cultures for weekly experiments were initiated from stock plates that were stored for up to 1 month at 4° C. before being refreshed from long-term, 80° C. glycerol stocks. In all experiments, bacteria cell densities were adjusted to an optical density (OD550) between 0.35 to 0.45 using a spectrophotometer immediately before embryo infection.
F2 immature zygotic embryos (1.5-2.0 mm) of the maize (Zea mays) Hi II hybrid genotype (Armstrong et al., 1991) were aseptically dissected from greenhouse-grown ears harvested 10 to 13 d post pollination. Ears were stored up to 3 d at 4° C. before dissection.
Infection, cocultivation, resting, and selection media were after Zhao et al. (1999) except that cocultivation medium was modified to contain Cys. All these media contained N6 salts and vitamins (Chu et al., 1975), 1.5 mg/L 2,4-dichlorophenoxyacetic acid, and 0.7 g L1 L-Pro in addition to the following ingredients: infection medium contained 68.4 g/L Suc and 36 g/L Glc (pH 5.2) and was supplemented with 100 μM AS (Sigma, St. Louis) before use; cocultivation medium contained 30 g/L Suc, 0.85 mg/L silver nitrate, 100 μM AS, and 3 g/L gelrite (pH 5.8); resting medium contained 30 g/L Suc, 0.5 g/L MES, 0.85 mg/L silver nitrate, 250 mg/L cefotaxime, and 8 g/L purified agar (pH 5.8). Selection medium was identical to resting medium with the addition of 1.5 or 3 mg/L bialaphos (Shinyo Sanyo, Tokyo). Infection medium was filter sterilized, whereas all other media were autoclaved. AS stock solutions (100 mM) were prepared by dissolving AS in 100% (v/v) dimethyl sulfoxide (DMSO) to make a 200 mM stock which was then diluted (1:1 [v/v]) with sterile water and stored in small aliquots at 20° C. Cys was added to cocultivation medium after autoclaving from freshly prepared, filter-sterilized stocks (100 mg/mL) and cocultivation medium was used within 2 to 5 d of preparation. Regeneration I medium contained Murashige and Skoog salts and vitamins (Murashige and Skoog, 1962), 60 g/L Suc, 100 mg/L myo-inositol, no hormones, and 3 g/L gelrite (pH 5.8) after Armstrong and Green (1985). Cefotaxime (250 mg/L) and bialaphos (3 mg/L) were added to this medium after autoclaving. Regeneration II medium differed from medium I in that it contained 30 g/L Suc and no bialaphos.

Japonica rice explants = conditions: 80 mg/L Cys; cited from earlier work
maize immature embryos = test: Maize transformation experiments with control or histone H2A-1 T-DNA binary vector, with or without anti-oxidant; assay type: cell-based
Description: 2. Kan Wang at the Plant Transformation Facility, Iowa State University tested for the present invention in two different Agrobacterium strains. One contains a T-DNA binary vector with a herbicide resistance gene in the T-DNA (this is the control construction)1. The other strain contains a similar T-DAN binary vector, but in addition to the herbicide resistance gene the T-DNA contains the Arabidopsis histone H2A-1 cDNA under the control of maize adh1 promoter and intron. These strains were used in four rounds of maize transformation experiments. […] Several thousand transformations (using the control vector without the histone gene) produced virtually no transformants. In these experiments, there were no transformants (using the control strain) without L-cysteine.

Q: Which “T-DNA delivery to embryogenic-competent scutellum cells of infected embryos” value ([1]; 400 mg/L Cys in cocultivation medium) does the source give for N[C@@H](CS)C(=O)O [L-cysteine] here?
A: increased

Q: And the stable transformation rates ([1]; Cys as low as 100 mg/L, compared with 400 mg/L, better embryo recovery)?
A: Comparable

Q: What about the “transient glucuronidase expression in targeted cells” value ([1]; L-cysteine in cocultivation medium, 400 mg/L) of the same compound?
A: improvement

Q: And the “embryo response after cocultivation” value ([1]; L-cysteine in cocultivation medium, 400 mg/L vs 0 mg/L)?
A: decrease

Q: What about the impact on embryogenesis (Japonica rice explants) of the same compound?
A: negative impact

Q: What about the “infected immature embryos giving transformants” value (maize immature embryos; control vector without histone gene, with L-cysteine, no transformants without L-cysteine) of the same compound?
A: 2-3%

Q: And the transformation (maize immature embryos; histone gene vector and L-cysteine)?
A: 2-3%
